Target: T1, Human BCL-XL protein (N-terminal HiBiT tagged BCL-XL expressed in HT1080 cells) (Homo sapiens, UniProt Q07817)
T1 construct: expressed in transfected cells; host or cells: HT-1080 (ATCC CCL-121), stably transduced with lentivirus pLV-UBC-N-HiBiT-BCL-XL-PGK-puro and selected with puromycin
Test: HiBiT Based Degradation Assay
Assay type: cell-based
Conditions: 24 hours incubation; for DC50: BCL-XL degradation, HT1080 cells expressing N-HiBiT-BCL-XL, normalized with DMSO control, geometric mean for multiple data points, read-out: EC50 (24 h); for Ymin (24 h): bottom of BCL-XL degradation curve (remaining HiBiT-BCL-XL signal vs DMSO control), HT1080 cells
Procedure, shortened: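 BCL-XL degradation was read as Nano-Glo HiBiT lytic luminescence relative to DMSO after a 24 h compound treatment of HT1080 cells carrying stably integrated N-HiBiT-BCL-XL. EC50 values come from four-parameter logistic curves, with the hook-curve minimum fixed as bottom, and are geometric means where tested repeatedly.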

T1 sequence (Q07817 whole entry): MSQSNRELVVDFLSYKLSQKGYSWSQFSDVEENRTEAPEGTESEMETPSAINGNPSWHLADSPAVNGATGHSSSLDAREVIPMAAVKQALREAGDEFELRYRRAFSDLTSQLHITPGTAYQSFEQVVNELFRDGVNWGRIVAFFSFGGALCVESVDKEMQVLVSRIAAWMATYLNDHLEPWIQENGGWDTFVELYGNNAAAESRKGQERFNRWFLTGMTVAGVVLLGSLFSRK

DC50 [µM] | Ymin (24 h) | Structure (SMILES)
< 0.01 | A (Ymin < 30%) | Cc1cc(OCCC[C@H]2CCN(CC(=O)Nc3ccc4c(C5CCC(=O)NC5=O)nn(C)c4c3)[C@@H](C)C2)ccc1-c1ccc(N2CCc3ccnc(C(=O)Nc4nc5ccccc5s4)c3C2)nc1C(=O)O (stereo partly drawn) [Compound 219b, 6-(8-(benzo[d]thiazol-2-ylcarbamoyl)-3,4-dihydro-2,7-naphthyridin-2(1H)-yl)-3-(4-(3-((2S,4S)-1-(2-((3-(2,6-dioxopiperidin-3-yl)-1-methyl-1H-indazol-6-yl)amino)-2-oxoethyl)-2-methylpiperidin-4-yl)propoxy)-2-methylphenyl)picolinic acid]
< 0.01 | A (Ymin < 30%) | Cc1cc(OCCC[C@H]2CCN(CC(=O)Nc3ccc4c(C5CCC(=O)NC5=O)nn(C)c4c3)[C@H](C)C2)ccc1-c1ccc(N2CCc3ccnc(C(=O)Nc4nc5ccccc5s4)c3C2)nc1C(=O)O (stereo partly drawn) [Compound 219c]
< 0.01 | A (Ymin < 30%) | Cc1cc(OCCC[C@@H]2CCN(CC(=O)Nc3ccc4c(C5CCC(=O)NC5=O)nn(C)c4c3)[C@H](C)C2)ccc1-c1ccc(N2CCc3ccnc(C(=O)Nc4nc5ccccc5s4)c3C2)nc1C(=O)O (stereo partly drawn) [Compound 219d]
0.01 to 0.1 | C (50% ≤ Ymin < 70%) | Cc1c(-c2ccc(N3CCc4cccc(C(=O)Nc5nc6ccccc6s5)c4C3)nc2C(=O)O)cccc1N(C)CCCC1CCN(CC(=O)Nc2ccc3c(C4CCC(=O)NC4=O)nn(C)c3c2)CC1 (stereo not drawn) [Compound 220]
< 0.01 | A (Ymin < 30%) | Cc1cc(OC2CCC3(CC2)CCN(CC(=O)Nc2ccc4c(C5CCC(=O)NC5=O)nn(C)c4c2)CC3)ccc1-c1ccc(N2CCc3cccc(C(=O)Nc4nc5ccccc5s4)c3C2)nc1C(=O)O (stereo not drawn) [Compound 221]
< 0.01 | A (Ymin < 30%) | Cc1cc(N(C)CCCC2CCN(CC(=O)Nc3ccc4c(C5CCC(=O)NC5=O)nn(C)c4c3)CC2)ccc1-c1ccc(N2CCc3cccc(C(=O)Nc4nc5ccccc5s4)c3C2)nc1C(=O)O (stereo not drawn) [Compound 222, 6-(8-(benzo[d]thiazol-2-ylcarbamoyl)-3,4-dihydroisoquinolin-2(1H)-yl)-3-(4-((3-(1-(2-((3-(2,6-dioxopiperidin-3-yl)-1-methyl-1H-indazol-6-yl)amino)-2-oxoethyl)piperidin-4-yl)propyl)(methyl)amino)-2-methylphenyl)picolinic acid]
< 0.01 | B (30% ≤ Ymin < 50%) | Cn1nc(C2CCC(=O)NC2=O)c2ccc(NC(=O)CN3CCN(CCCO[C@H]4CC[C@H](c5ccc(N6CCc7cccc(C(=O)Nc8nc9ccccc9s8)c7C6)nc5C(=O)O)CC4)CC3)cc21 (stereo partly drawn) [Compound 2001a]
0.01 to 0.1 | C (50% ≤ Ymin < 70%) | Cc1c(OCCCCC2CCN(Cc3nc4cc(C5CCC(=O)NC5=O)ccc4n3C)CC2)cccc1-c1ccc(N2CCc3cccc(C(=O)Nc4nc5ccccc5s4)c3C2)nc1C(=O)O (stereo not drawn) [Compound 2002]
0.01 to 0.1 | C (50% ≤ Ymin < 70%) | Cc1cc(OCCCC2CCN(Cc3nc4ccc(C5CCC(=O)NC5=O)cc4[nH]3)CC2)ccc1-c1ccc(N2CCc3cccc(C(=O)Nc4nc5ccccc5s4)c3C2)nc1C(=O)O (stereo not drawn) [Compound 2003]

— US20260216170A1, “TETRAHYDROISOQUINOLINE HETEROBIFUNCTIONAL BCL-XL DEGRADERS” (Treeline Biosciences, Inc., priority 2023, published 2026)
